PubChem BioAssay AID248 (DTP/NCI, 2004)
“And” between values parts separate entries of the source, which are not always exact repeats. Equal values may be shown once. Toxic doses and inconclusive results are not listed.

Test system: L1210 leukemia ip in BDF1 mice, survival T/C
Experiment: NCI In Vivo Anticancer Drug Screen. Data for tumor model L1210 Leukemia (intraperitoneal) in B6D2F1 (BDF1) mice
Settings: endpoint: mean survival time, higher = longer survival
Method in brief: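 Transplantable tumor model; survival measured in treated vs vehicle control mice. Value = treated/control.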

[1] = dose: 200.0 mg/kg/injection, schedule: Q04DX003 (ip), vehicle: saline
[2] = dose: 400.0 mg/kg/injection, schedule: Q04DX003 (ip), vehicle: saline
[3] = dose: 100.0 mg/kg/injection, schedule: Q04DX003 (ip), vehicle: saline
[4] = dose: 50.0 mg/kg/injection, schedule: Q01DX009 (ip), vehicle: saline with Tween-80
[5] = dose: 100.0 mg/kg/injection, schedule: Q01DX009 (ip), vehicle: saline with Tween-80
[6] = dose: 200.0 mg/kg/injection, schedule: Q01DX009 (ip), vehicle: saline with Tween-80
[7] = dose: 100.0 mg/kg/injection, schedule: Q04DX003 (ip), vehicle: saline with Tween-80
[8] = dose: 200.0 mg/kg/injection, schedule: Q04DX003 (ip), vehicle: saline with Tween-80
[9] = dose: 400.0 mg/kg/injection, schedule: Q01DX009 (ip), vehicle: saline with Tween-80
[10] = dose: 400.0 mg/kg/injection, schedule: Q04DX003 (ip), vehicle: saline with Tween-80
[11] = dose: 100.0 mg/kg/injection, schedule: Q01DX001 (ip), vehicle: carboxymethylcellulose (CMC)
[12] = dose: 200.0 mg/kg/injection, schedule: Q01DX001 (ip), vehicle: carboxymethylcellulose (CMC)
[13] = dose: 400.0 mg/kg/injection, schedule: Q01DX001 (ip), vehicle: carboxymethylcellulose (CMC)

SMILES: O=C(Nc1ccc(NC(=O)Nc2ccc(C3=NCCCN3)cc2)cc1)Nc1ccc(C2=NCCCN2)cc1
- T/C (dose: 8.3 mg/kg/injection, schedule: Q04DX003 (ip), vehicle: saline with Tween-80): 107 % of control
- T/C (dose: 12.0 mg/kg/injection, schedule: Q04DX003 (ip), vehicle: saline with Tween-80): 121 % of control
- T/C (dose: 100.0 mg/kg/injection, schedule: Q01DX001 (ip), vehicle: saline): 124 % of control
- T/C [1]: 159 % of control
- T/C (dose: 264.0 mg/kg/injection, schedule: Q01DX001 (ip), vehicle: saline): 208 % of control
- T/C [2]: 279 % of control

SMILES: O=C(O)CCC1CCC(=O)OC1=O (stereo not drawn)
- T/C (dose: 100.0 mg/kg/injection, schedule: Q01DX009 (ip), vehicle: saline): 101 % of control
- T/C [3]: 98 % of control
- T/C (dose: 200.0 mg/kg/injection, schedule: Q01DX009 (ip), vehicle: saline): 100 % of control
- T/C [1]: 89 % of control
- T/C (dose: 400.0 mg/kg/injection, schedule: Q01DX009 (ip), vehicle: saline): 99 % of control
- T/C [2]: 94 % of control

SMILES: COC1(OC)CC2C(=O)CCCC21OC(C)=O (stereo not drawn)
- T/C (dose: 75.0 mg/kg/injection, schedule: Q04DX002 (ip), vehicle: saline): 93 % of control
- T/C (dose: 150.0 mg/kg/injection, schedule: Q04DX002 (ip), vehicle: saline): 103 % of control
- T/C (dose: 300.0 mg/kg/injection, schedule: Q04DX002 (ip), vehicle: saline): 107 % of control

SMILES: O=C1C=CC(=O)N1c1cccc2c(N3C(=O)C=CC3=O)cccc12
- T/C (dose: 11.1 mg/kg/injection, schedule: Q01DX Z (ip), vehicle: methylcellulose (MC)): 89 % of control
- T/C (dose: 16.6 mg/kg/injection, schedule: Q01DX Z (ip), vehicle: methylcellulose (MC)): 95 % of control
- T/C (dose: 25.0 mg/kg/injection, schedule: Q01DX Z (ip), vehicle: methylcellulose (MC)): 104 % of control

SMILES: Nc1nc(N)c2nc(CNC3CCCCC3)cnc2n1
- T/C (dose: 20.0 mg/kg/injection, schedule: Q01DX009 (ip), vehicle: Klucel (hydroxypropylcellulose) (HPC)): 95 % of control
- T/C (dose: 40.0 mg/kg/injection, schedule: Q01DX009 (ip), vehicle: Klucel (hydroxypropylcellulose) (HPC)): 93 % of control
- T/C (dose: 80.0 mg/kg/injection, schedule: Q01DX009 (ip), vehicle: Klucel (hydroxypropylcellulose) (HPC)): 97 % of control

SMILES: CC1CCCCN1C(=O)Nc1ccc(Cl)cc1Cl (stereo not drawn)
- T/C [4]: 91 % of control
- T/C [5]: 102 % of control
- T/C [6]: 98 % of control

SMILES: Cc1ccccc1NC(=O)c1ccc([N+](=O)[O-])cc1
- T/C [5]: 106 % of control
- T/C [7]: 98 % of control
- T/C [6]: 101 % of control
- T/C [8]: 94 % of control
- T/C [9]: 101 % of control
- T/C [10]: 98 % of control

SMILES: O=[N+]([O-])c1ccc(S(=O)(=O)OCc2ccccc2COS(=O)(=O)c2ccc([N+](=O)[O-])cc2)cc1
- T/C (dose: 50.0 mg/kg/injection, schedule: Q04DX002 (ip), vehicle: saline with Tween-80): 106 % of control
- T/C (dose: 100.0 mg/kg/injection, schedule: Q04DX002 (ip), vehicle: saline with Tween-80): 101 % of control

SMILES: O=C1N=C2C=CC=CN2C(=O)C1Cc1ccccc1 (stereo not drawn)
- T/C [5]: 90 % of control
- T/C [7]: 98 % of control
- T/C [6]: 89 % of control
- T/C [8]: 94 % of control
- T/C [9]: 96 % of control
- T/C [10]: 99 % of control

SMILES: COc1ccc(OC)c(/C=C2\SC(=S)N(C3OC(COC(C)=O)C(OC(C)=O)C(OC(C)=O)C3OC(C)=O)C2=O)c1 (stereo not drawn)
- T/C (dose: 25.0 mg/kg/injection, schedule: Q01DX005 (ip), vehicle: other): 101 % of control
- T/C (dose: 50.0 mg/kg/injection, schedule: Q01DX005 (ip), vehicle: other): 108 % of control
- T/C (dose: 100.0 mg/kg/injection, schedule: Q01DX005 (ip), vehicle: other): 101 % of control
- T/C (dose: 200.0 mg/kg/injection, schedule: Q01DX005 (ip), vehicle: other): 97 % of control
- T/C (dose: 400.0 mg/kg/injection, schedule: Q01DX005 (ip), vehicle: other): 104 % of control

SMILES: O=NN(CCF)C(=O)NCCCl
- T/C (dose: 9.0 mg/kg/injection, schedule: Q01DX001 (ip), vehicle: Klucel (hydroxypropylcellulose) (HPC)): 185 % of control and 220 % of control
- T/C (dose: 14.0 mg/kg/injection, schedule: Q01DX001 (ip), vehicle: Klucel (hydroxypropylcellulose) (HPC)): 352 % of control and 355 % of control
- T/C (dose: 21.0 mg/kg/injection, schedule: Q01DX001 (ip), vehicle: Klucel (hydroxypropylcellulose) (HPC)): 419 % of control and 564 % of control
- T/C (dose: 32.0 mg/kg/injection, schedule: Q01DX001 (ip), vehicle: Klucel (hydroxypropylcellulose) (HPC)): 746 % of control

SMILES: Cc1cc(N(CCCl)CCCl)ccc1C=Nc1cc(Br)cc(Br)c1
- T/C [11]: 101 % of control
- T/C [12]: 110 % of control
- T/C [13]: 108 % of control

SMILES: O=C(CC(O)(C(F)(F)F)C(F)(F)F)c1c2ccccc2cc2ccccc12
- T/C [5]: 98 % of control
- T/C [6]: 109 % of control
- T/C [9]: 98 % of control

SMILES: OC1(C#CC#CC2(O)CCCCC2)CCCCC1
- T/C [3]: 92 % of control
- T/C [1]: 98 % of control
- T/C [2]: 93 % of control

SMILES: CCCCC(C)NC1=C(Cl)C(=O)c2ccccc2C1=O (stereo not drawn)
- T/C (dose: 25.0 mg/kg/injection, schedule: Q01DX009 (ip), vehicle: saline with Tween-80): 101 % of control
- T/C [4]: 93 % of control
- T/C [5]: 87 % of control

SMILES: O=C(OC1CC2CC1C1C=CCC21)c1ccc([N+](=O)[O-])cc1 (stereo not drawn)
- T/C (dose: 44.0 mg/kg/injection, schedule: Q01DX001 (ip), vehicle: carboxymethylcellulose (CMC)): 94 % of control and 97 % of control
- T/C (dose: 50.0 mg/kg/injection, schedule: Q01DX001 (ip), vehicle: carboxymethylcellulose (CMC)): 102 % of control
- T/C (dose: 67.0 mg/kg/injection, schedule: Q01DX001 (ip), vehicle: carboxymethylcellulose (CMC)): 94 % of control and 100 % of control
- T/C (dose: 100.0 mg/kg/injection, schedule: Q01DX001 (ip), vehicle: Klucel (hydroxypropylcellulose) (HPC)): 104 % of control
- T/C [11]: 94 % of control and 100 % of control
- T/C (dose: 100.0 mg/kg/injection, schedule: Q01DX009 (ip), vehicle: Klucel (hydroxypropylcellulose) (HPC)): 101 % of control
- T/C (dose: 150.0 mg/kg/injection, schedule: Q01DX001 (ip), vehicle: carboxymethylcellulose (CMC)): 86 % of control and 91 % of control
- T/C (dose: 200.0 mg/kg/injection, schedule: Q01DX001 (ip), vehicle: Klucel (hydroxypropylcellulose) (HPC)): 93 % of control
- T/C [12]: 90 % of control
- T/C (dose: 200.0 mg/kg/injection, schedule: Q01DX009 (ip), vehicle: Klucel (hydroxypropylcellulose) (HPC)): 104 % of control
- T/C (dose: 400.0 mg/kg/injection, schedule: Q01DX001 (ip), vehicle: Klucel (hydroxypropylcellulose) (HPC)): 104 % of control
- T/C [13]: 96 % of control
- T/C (dose: 400.0 mg/kg/injection, schedule: Q01DX009 (ip), vehicle: Klucel (hydroxypropylcellulose) (HPC)): 101 % of control

SMILES: CCCC(C(O)c1ccc(OC)cc1)C(O)(C(F)(F)F)C(F)(F)F (stereo not drawn)
- T/C (dose: 100.0 mg/kg/injection, schedule: Q04DX003 (ip), vehicle: other): 97 % of control
- T/C (dose: 200.0 mg/kg/injection, schedule: Q04DX003 (ip), vehicle: other): 92 % of control
- T/C (dose: 400.0 mg/kg/injection, schedule: Q04DX003 (ip), vehicle: other): 92 % of control

SMILES: C1=CC2CC1C1CC21 (stereo not drawn)
- T/C (dose: 75.0 mg/kg/injection, schedule: Q01DX001 (ip), vehicle: saline): 100 % of control
- T/C (dose: 150.0 mg/kg/injection, schedule: Q01DX001 (ip), vehicle: saline): 96 % of control
- T/C (dose: 300.0 mg/kg/injection, schedule: Q01DX001 (ip), vehicle: saline): 96 % of control
